According to patent publication US20040248887A1, “Inhibitors of cathepsin S” (IRM LLC, priority 2003, published 2004):
pKi: −log10 of the molar value.

target: Cathepsin S (Homo sapiens, UniProt P25774); test: Cathepsin S inhibition, fluorogenic peptide substrate kinetic assay; assay type: biochemical; details: Table II; Cathepsin S inhibition constant, pH5.5; read-out: Ki Cat. S
Source text: “Inhibition constant”, Ki, is the dissociation constant of the enzyme-inhibitor complex, or the reciprocal of the binding affinity of the inhibitor to the enzyme. […] The inhibited rates are then fit by nonlinear regression to the following equation: [formula]
where vo is the initial rate of substrate processing in the absence of inhibitor, v; is the initial rate of substrate processing at a concentration [I] of inhibitor, Km is the steady state Michaelis constant (Fersht, A. Structure and Mechanism in Protein Science. New York, W.H. Freeman and Company, 1999), and [S] is the concentration of competitive substrate.
The assumption being made for the classical inhibition described above is that the free inhibitor concentration is equal to the total inhibitor concentration.
The inhibition constant, Ki, can be determined from the apparent inhibition constant, Ki^app, for competitive inhibitors by using the following relationship: [formula]
The optimal substrate for cathepsin S, acetyl-histidine-proline-valine-lysine-amino carbamoyl coumarin, was identified from screening a combinatorial library of fluorogenic peptide substrates (Harris, J. L., B. J. Backes, et al., Proc Natl Acad Sci USA 2000, 97(14), 7754-9). Kinetic measurements are performed in a total reaction volume of 30 μl in 384-well microtiter plates. […] The reactions are initiated by adding the substrate, acetyl-histidine-proline-valine-lysine-amino carbamoyl coumarin, to a final concentration of 50 μM. The rate of substrate hydrolysis is measured by monitoring the increase in fluorescence at an excitation wavelength of 380 nm and an emission wavelength of 450 nm that results from cleavage of the aniline bond in the substrate by the enzyme. The apparent inhibition constants for the compounds are determined from the enzyme progress curves (Kuzmic, P., K. C. Elrod, et al., Anal Biochem 2000, 286(1), 45-50) and are then used to calculate the inhibition constants for competitive inhibitors.

Sequence of Cathepsin S (P25774 115-331, species assumed): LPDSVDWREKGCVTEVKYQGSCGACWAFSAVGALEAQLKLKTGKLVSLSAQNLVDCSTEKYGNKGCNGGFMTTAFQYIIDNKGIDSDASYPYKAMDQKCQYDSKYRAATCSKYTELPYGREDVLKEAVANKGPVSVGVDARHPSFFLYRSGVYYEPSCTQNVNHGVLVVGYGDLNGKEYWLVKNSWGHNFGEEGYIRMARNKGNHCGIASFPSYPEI

Cn1cncc1S(=O)(=O)N[C@@H](CC1CCCCC1)C(=O)NCCN1CCc2cc(F)ccc21 [Compound 232, (S)-3-Cyclohexyl-N-[2-(5-fluoro-2,3-dihydro-indol-1-yl)-ethyl]-2-(3-methyl-3H-imidazole-4-sulfonylamino)-propionamide] and C[C@@H](CNc1ccc(OC(F)(F)F)cc1)NC(=O)[C@H](CC1CCCCC1)NC(=O)O[C@@H]1CCOC1 [Compound 188, {2-Cyclohexyl-1-(S)-[1-(S)-methyl-2-(4-trifluoromethoxy-phenylamino)-ethylcarbamoyl]-ethyl}-carbamic acid tetrahydrofuran-3-(R)-yl ester] cannot be ordered by pKi: greater than 5.00 for the first, greater than 7.00 for the second.

O=C(N[C@@H](Cc1ccc(Cl)cc1)C(=O)NCCN1CCc2cc(F)ccc21)c1ccc(-c2cccc(C(F)(F)F)c2)o1 [Compound 198, N-((S)-1-(2-(5-fluoroindolin-1-yl)ethylcarbamoyl)-2-(4-chlorophenyl)ethyl)-5-(3-(trifluoromethyl)phenyl)furan-2-carboxamide] and C[C@@H](CN1c2ccc(F)cc2CC1(C)C)NC(=O)[C@H](CC1CCCCC1)NC(=O)[C@H]1CCCO1 [Compound 274, Tetrahydrofuran-2-(R)-carboxylic acid {2-cyclohexyl-1-(S)-[2-(5-fluoro-2,2-dimethyl-2,3-dihydro-indol-1-yl)-1-(S)-methyl-ethylcarbamoyl]-ethyl}-amide] cannot be ordered by pKi: greater than 6.00 for the first, greater than 6.00 for the second.

C[C@@H](CNc1cccc(-c2nnn[nH]2)c1)NC(=O)[C@H](CC1CCCCC1)NC(=O)OCc1ccccc1 [Compound 180, (2-Cyclohexyl-1-(S)-{1-(S)-methyl-2-[3-(1H-tetrazol-5-yl)-phenylamino]-ethylcarbamoyl}-ethyl)-carbamic acid benzyl ester] and O=C(NCCN1CCc2cc(F)ccc21)[C@H](CC1CCCCC1)NS(=O)(=O)c1ccc(Oc2ccccc2)cc1 [Compound 226, (S)-3-Cyclohexyl-N-[2-(5-fluoro-2,3-dihydro-indol-1-yl)-ethyl]-2-(4-phenoxy-benzenesulfonylamino)-propionamide] cannot be ordered by pKi: greater than 6.00 for the first, greater than 7.00 for the second.

Cc1occ(C(F)(F)F)c1S(=O)(=O)N[C@@H](CC1CCCCC1)C(=O)N[C@@H](C)CN1CCc2cc(F)ccc21 [Compound 253, (S,S)-3-Cyclohexyl-N-[2-(5-fluoro-2,3-dihydro-indol-1-yl)-1-methyl-ethyl]-2-(2-methyl-4-trifluoromethyl-furan-3-sulfonylamino)-propionamide] and O=C(N[C@@H](CC1CCCCC1)C(=O)NCCN1CCc2cc(F)ccc21)C1CCN(S(=O)(=O)c2ccc(Cl)cc2)CC1 [Compound 17, 1-(4-Chloro-benzenesulfonyl)-piperidine-4-carboxylic acid (S)-{2-cyclohexyl-1-[2-(5-fluoro-2,3-dihydro-indol-1-yl)-ethylcarbamoyl]-ethyl}-amide] cannot be ordered by pKi: greater than 7.00 for the first, greater than 6.00 for the second.

C[C@@H](CNc1ccc(OC(F)F)cc1)NC(=O)[C@H](CC1CCCCC1)NC(=O)c1ccc(-c2ccc(F)cc2)o1 [Compound 104, 5-(4-Fluoro-phenyl)-furan-2-carboxylic acid {2-cyclohexyl-1-(S)-[2-(4-difluoromethoxy-phenylamino)-1-(S)-methyl-ethylcarbamoyl]-ethyl}-amide] and CC(C(=O)N[C@@H](CC1CCCCC1)C(=O)NCCN1CCc2cc(F)ccc21)c1ccc(-c2ccccc2)c(F)c1 (stereo partly drawn) [Compound 59, N-{2-cyclohexyl-1-(S)-[2-(5-fluoro-2,3-dihydro-indol-1-yl)-ethylcarbamoyl]-ethyl}-2-(2-fluoro-biphenyl-4-yl)-propionamide] cannot be ordered by pKi: greater than 7.00 for the first, greater than 7.00 for the second.

C[C@@H](CNc1ccc(OC(F)(F)F)cc1)NC(=O)[C@H](CC1CCCCC1)NC(=O)c1nc(-c2ccc(F)cc2)no1 [Compound 109, 3-(4-Fluoro-phenyl)-[1,2,4]oxadiazole-5-carboxylic acid {2-cyclohexyl-1-(S)-[1-(S)-methyl-2-(4-trifluoromethoxy-phenylamino)-ethylcarbamoyl]-ethyl}-amide] and O=C(N[C@@H](CC1CCCCC1)C(=O)NCCN1CCc2cc(F)ccc21)c1csc(-c2ccccc2)n1 [Compound 76, 2-Phenyl-thiazole-4-carboxylic acid (S)-{2-cyclohexyl-1-[2-(5-fluoro-2,3-dihydro-indol-1-yl)-ethylcarbamoyl]-ethyl}-amide] cannot be ordered by pKi: greater than 7.00 for the first, greater than 7.00 for the second.

COc1ccc(NCCNC(=O)[C@H]2CCCC[C@H]2NC(=O)c2cccc(C)c2)cc1 (relative stereo) [Compound 1, N-{cis-2-[2-(4-Methoxy-phenylamino)-ethylcarbamoyl]-cyclohexyl}-3-methyl-benzamide] and Cn1cnc(S(=O)(=O)N[C@@H](CC2CCCCC2)C(=O)NCCN2CCc3cc(F)ccc32)c1 [Compound 255, (S)-3-Cyclohexyl-N-[2-(5-fluoro-2,3-dihydro-indol-1-yl)-ethyl]-2-(1-methyl-1H-imidazole-4-sulfonylamino)-propionamide] cannot be ordered by pKi: greater than 5.00 for the first, greater than 6.00 for the second.

C[C@@H](CNc1ccc(OC(F)(F)F)cc1)NC(=O)[C@H](CC(C)(C)C)NC(=O)[C@H]1CCCO1 [Compound 268, Tetrahydrofuran-2-(R)-carboxylic acid {3,3-dimethyl-1-(S)-[1-(S)-methyl-2-(4-trifluoromethoxy-phenylamino)-ethylcarbamoyl]-butyl}-amide] and COc1cccc(C(=O)N[C@@H](CCC2CCCCC2)C(=O)N[C@@H](CCCCNC(=O)OCc2ccccc2)CN2CCc3cc(F)ccc32)c1 [Compound 55, (S,S)-[5-[4-Cyclohexyl-2-(3-methoxy-benzoylamino)-butyrylamino]-6-(5-fluoro-2,3-dihydro-indol-1-yl)-hexyl]-carbamic acid benzyl ester] cannot be ordered by pKi: greater than 5.00 for the first, greater than 6.00 for the second.

CC(=O)Nc1cccc(NC[C@H](C)NC(=O)[C@H](CC2CCCCC2)NC(=O)c2ccc(-c3cccc(F)c3)o2)c1 [Compound 134, 5-(3-Fluoro-phenyl)-furan-2-carboxylic acid {1-(S)-[2-(3-acetylamino-phenylamino)-1-(S)-methyl-ethylcarbamoyl]-2-cyclohexyl-ethyl}-amide] and O=C(N[C@@H](CC1CCCCC1)C(=O)N[C@@H](CO)CN1CCc2cc(F)ccc21)c1ccc(-c2cccc(C(F)(F)F)c2)o1 [Compound 153, 5-(3-Trifluoromethyl-phenyl)-furan-2-carboxylic acid {2-cyclohexyl-1-(S)-[2-(5-fluoro-2,3-dihydro-indol-1-yl)-1-(R)-hydroxymethyl-ethylcarbamoyl]-ethyl}-amide] cannot be ordered by pKi: greater than 7.00 for the first, greater than 7.00 for the second.

COc1ccc(S(=O)(=O)N2CCC(C(=O)N[C@@H](CC3CCCCC3)C(=O)NCCN3CCc4cc(F)ccc43)CC2)cc1 [Compound 57, 1-(4-Methoxy-benzenesulfonyl)-piperidine-4-carboxylic acid (S)-{2-cyclohexyl-1-[2-(5-fluoro-2,3-dihydro-indol-1-yl)-ethylcarbamoyl]-ethyl}-amide] and C[C@@H](CNc1ccc(OC(F)(F)F)cc1)NC(=O)[C@H](CC1CCCCC1)NC(=O)c1ccc(-c2cccc(F)c2)o1 [Compound 83, 5-(3-Fluoro-phenyl)-furan-2-carboxylic acid {2-cyclohexyl-1-(S)-[1-(S)-methyl-2-(4-trifluoromethoxy-phenylamino)-ethylcarbamoyl]-ethyl}-amide] cannot be ordered by pKi: greater than 6.00 for the first, greater than 7.00 for the second.

O=C(N[C@@H](CC1CCCCC1)C(=O)NCCN1CCc2cc(F)ccc21)c1ccc(-c2cccc(C(F)(F)F)c2)o1 [Compound 2, 5-(3-Trifluoromethyl-phenyl)-furan-2-carboxylic acid (S)-{2-cyclohexyl-1-[2-(5-fluoro-2,3-dihydro-indol-1-yl)-ethylcarbamoyl]-ethyl}-amide] and COc1cccc(C(=O)N[C@@H](CCC2CCCCC2)C(=O)NCCN2CCc3cccc(OC)c32)c1 [Compound 8, (S)-N-{3-Cyclohexyl-1-[2-(7-methoxy-2,3-dihydro-indol-1-yl)-ethylcarbamoyl]-propyl}-3-methoxy-benzamide] cannot be ordered by pKi: greater than 7.00 for the first, greater than 5.00 for the second.

C[C@@H](CN1CC(C)(C)c2cc(F)ccc21)NC(=O)[C@H](CC(C)(C)C)NC(=O)[C@H]1CCCO1 [Compound 271, Tetrahydro-furan-2-(R)-carboxylic acid {1-(S)-[2-(5-fluoro-3,3-dimethyl-2,3-dihydro-indol-1-yl)-1-(S)-methyl-ethylcarbamoyl]-3,3-dimethyl-butyl}-amide] and “(S)-3-Cyclohexyl-N-[2-(5-fluoro-2,3-dihydro-indol-1-yl)-ethyl]-2-(5-methyl-1-phenyl-1H-pyrazole-4-sulfonylamino)-propionamide [Compound 222]” cannot be ordered by pKi: greater than 5.00 for the first, greater than 6.00 for the second.

Cc1cccc(C(=O)N[C@@H](CCC2CCCCC2)C(=O)NCCN2CCc3cc(F)ccc32)c1 [Compound 204, N-((S)-1-(2-(5-fluoroindolin-1-yl)ethylcarbamoyl)-3-cyclohexylpropyl)-3-methylbenzamide] and C[C@@H](CNc1cccc(F)c1F)NC(=O)[C@H](CC1CCCCC1)NC(=O)c1ccc(-c2cccc(F)c2)o1 [Compound 90, 5-(3-Fluoro-phenyl)-furan-2-carboxylic acid {2-cyclohexyl-1-(S)-[2-(2,3-difluoro-phenylamino)-1-(S)-methyl-ethylcarbamoyl]-ethyl}-amide] cannot be ordered by pKi: greater than 6.00 for the first, greater than 7.00 for the second.
